Laboratory results from ChEMBL document CHEMBL3885881, “DrugMatrix”.

Organism: Rattus norvegicus
Experiment: DrugMatrix - Regimen: Daily Repeat
Assay type: toxicity, organism-based, Sprague-Dawley
Parameters: regimen Daily Repeat, gender Male, age 6-8 weeks
Details: in vivo, po, route oral GAVAGE, vehicle .5 % CMC; for BASOPHIL / EOSINOPHIL / ERYTHROCYTE COUNT / HEMATOCRIT / LEUKOCYTE COUNT / LYMPHOCYTE / MEAN CORPUSCULAR HEMOGLOBIN / MEAN CORPUSCULAR HEMOGLOBIN CONCENTRATION / MONOCYTE / NEUTROPHIL / PLATELET COUNT / HEMOGLOBIN / MEAN CORPUSCULAR VOLUME: tissue Blood; for ALANINE AMINOTRANSFERASE / ALBUMIN / ASPARTATE AMINOTRANSFERASE / BLOOD UREA NITROGEN / CHOLESTEROL / CREATINE PHOSPHOKINASE / CREATININE / GLUCOSE / PHOSPHORUS / POTASSIUM / SODIUM / TOTAL PROTEIN / ALKALINE PHOSPHATASE: tissue Plasma
[1] = 0 mg/kg, 72 h, dose level Control, time 3 day
[2] = 0 mg/kg, 120 h, dose level Control, time 5 day
[3] = […], 72 h, dose 0.77 mg/Kg, dose level Low, time 3 day
[4] = […], 72 h, dose 7.5 mg/Kg, dose level High, time 3 day
[5] = […], 120 h, dose 0.77 mg/Kg, dose level Low, time 5 day
[6] = […], 120 h, dose 7.5 mg/Kg, dose level High, time 5 day

IVERMECTIN
BASOPHIL [1]: 0%
EOSINOPHIL [1]: 0.33%
ERYTHROCYTE COUNT [1]: 6.03 x10E6/uL
HEMATOCRIT [1]: 38.8%
LEUKOCYTE COUNT [1]: 10.64 x10E3/uL
LYMPHOCYTE [1]: 83.33%
MEAN CORPUSCULAR HEMOGLOBIN [1]: 23.64 pg
MEAN CORPUSCULAR HEMOGLOBIN CONCENTRATION [1]: 36.74 G/DL
MONOCYTE [1]: 3.33%
NEUTROPHIL [1]: 13%
PLATELET COUNT [1]: 1264.4 x10E3/uL
ALANINE AMINOTRANSFERASE [1]: 38.83 u/L
ALBUMIN [1]: 3.55 G/DL
ASPARTATE AMINOTRANSFERASE [1]: 66.17 u/L
BLOOD UREA NITROGEN [1]: 15.67 mg/dL
CHOLESTEROL [1]: 76.5 mg/dL
CREATINE PHOSPHOKINASE [1]: 166.83 u/L
CREATININE [1]: 0.52 mg/dL
GLUCOSE [1]: 173.17 mg/dL
PHOSPHORUS [1]: 11.68 mg/dL
POTASSIUM [1]: 6.43 MEQ/L
SODIUM [1]: 149.5 MEQ/L
TOTAL PROTEIN [1]: 5.93 G/DL
BASOPHIL [2]: 0%
EOSINOPHIL [2]: 0%
ERYTHROCYTE COUNT [2]: 5.88 x10E6/uL
HEMATOCRIT [2]: 37.87%
HEMOGLOBIN [2]: 14.48 G/DL
LEUKOCYTE COUNT [2]: 12.43 x10E3/uL
LYMPHOCYTE [2]: 84.17%
MEAN CORPUSCULAR HEMOGLOBIN [2]: 24.65 pg
MEAN CORPUSCULAR HEMOGLOBIN CONCENTRATION [2]: 38.25 G/DL
MEAN CORPUSCULAR VOLUME [2]: 64.47 fL
MONOCYTE [2]: 4.33%
NEUTROPHIL [2]: 11.5%
PLATELET COUNT [2]: 1182.33 x10E3/uL
ALANINE AMINOTRANSFERASE [2]: 38.67 u/L
ALBUMIN [2]: 3.55 G/DL
ALKALINE PHOSPHATASE [2]: 342.5 u/L
ASPARTATE AMINOTRANSFERASE [2]: 63.33 u/L
BLOOD UREA NITROGEN [2]: 15.5 mg/dL
CHOLESTEROL [2]: 75.5 mg/dL
CREATINE PHOSPHOKINASE [2]: 142.5 u/L
CREATININE [2]: 0.62 mg/dL
GLUCOSE [2]: 165.17 mg/dL
PHOSPHORUS [2]: 10.87 mg/dL
POTASSIUM [2]: 6.85 MEQ/L
SODIUM [2]: 150.17 MEQ/L
TOTAL PROTEIN [2]: 5.93 G/DL
BASOPHIL [3]: 0%
EOSINOPHIL [3]: 0%
ERYTHROCYTE COUNT [3]: 5.86 x10E6/uL
HEMATOCRIT [3]: 37.37%
HEMOGLOBIN [3]: 14 G/DL
LEUKOCYTE COUNT [3]: 13.5 x10E3/uL
LYMPHOCYTE [3]: 81.33%
MEAN CORPUSCULAR HEMOGLOBIN [3]: 23.97 pg
MEAN CORPUSCULAR HEMOGLOBIN CONCENTRATION [3]: 37.5 G/DL
MONOCYTE [3]: 4%
NEUTROPHIL [3]: 14.67%
PLATELET COUNT [3]: 1163.33 x10E3/uL
BASOPHIL [4]: 0%
EOSINOPHIL [4]: 0%
ERYTHROCYTE COUNT [4]: 6.06 x10E6/uL
HEMATOCRIT [4]: 37.9%
HEMOGLOBIN [4]: 13.7 G/DL
LEUKOCYTE COUNT [4]: 13 x10E3/uL
LYMPHOCYTE [4]: 92%
MEAN CORPUSCULAR HEMOGLOBIN [4]: 22.6 pg
MEAN CORPUSCULAR HEMOGLOBIN CONCENTRATION [4]: 36.1 G/DL
MONOCYTE [4]: 4%
NEUTROPHIL [4]: 4%
PLATELET COUNT [4]: 1400 x10E3/uL
ALANINE AMINOTRANSFERASE [3]: 35 u/L
ALKALINE PHOSPHATASE [3]: 418 u/L
ASPARTATE AMINOTRANSFERASE [3]: 56 u/L
BLOOD UREA NITROGEN [3]: 12.67 mg/dL
CHOLESTEROL [3]: 77.33 mg/dL
CREATINE PHOSPHOKINASE [3]: 149.33 u/L
CREATININE [3]: 0.5 mg/dL
PHOSPHORUS [3]: 13.27 mg/dL
POTASSIUM [3]: 6.9 MEQ/L
SODIUM [3]: 150.33 MEQ/L
TOTAL PROTEIN [3]: 5.73 G/DL
ALANINE AMINOTRANSFERASE [4]: 31 u/L
ALKALINE PHOSPHATASE [4]: 420 u/L
ASPARTATE AMINOTRANSFERASE [4]: 57 u/L
CHOLESTEROL [4]: 70 mg/dL
CREATINE PHOSPHOKINASE [4]: 190 u/L
CREATININE [4]: 0.5 mg/dL
PHOSPHORUS [4]: 13.3 mg/dL
POTASSIUM [4]: 6.93 MEQ/L
SODIUM [4]: 150.33 MEQ/L
BASOPHIL [5]: 0%
EOSINOPHIL [5]: 0%
ERYTHROCYTE COUNT [5]: 5.85 x10E6/uL
HEMATOCRIT [5]: 37.25%
HEMOGLOBIN [5]: 14 G/DL
LEUKOCYTE COUNT [5]: 11.3 x10E3/uL
LYMPHOCYTE [5]: 94%
MEAN CORPUSCULAR HEMOGLOBIN [5]: 23.95 pg
MEAN CORPUSCULAR HEMOGLOBIN CONCENTRATION [5]: 37.6 G/DL
MONOCYTE [5]: 0%
NEUTROPHIL [5]: 6%
PLATELET COUNT [5]: 1300.5 x10E3/uL
BASOPHIL [6]: 0%
EOSINOPHIL [6]: 0.33%
ERYTHROCYTE COUNT [6]: 6.11 x10E6/uL
HEMATOCRIT [6]: 40.07%
HEMOGLOBIN [6]: 15 G/DL
LEUKOCYTE COUNT [6]: 16.37 x10E3/uL
LYMPHOCYTE [6]: 90%
MEAN CORPUSCULAR HEMOGLOBIN CONCENTRATION [6]: 37.43 G/DL
MEAN CORPUSCULAR VOLUME [6]: 65.57 fL
MONOCYTE [6]: 1%
PLATELET COUNT [6]: 1335.33 x10E3/uL
ALANINE AMINOTRANSFERASE [5]: 36.33 u/L
ALKALINE PHOSPHATASE [5]: 489 u/L
ASPARTATE AMINOTRANSFERASE [5]: 59.67 u/L
BLOOD UREA NITROGEN [5]: 15.67 mg/dL
CHOLESTEROL [5]: 69.67 mg/dL
CREATINE PHOSPHOKINASE [5]: 135.67 u/L
CREATININE [5]: 0.53 mg/dL
GLUCOSE [5]: 195.33 mg/dL
PHOSPHORUS [5]: 13.07 mg/dL
POTASSIUM [5]: 6.87 MEQ/L
TOTAL PROTEIN [5]: 5.7 G/DL
ALANINE AMINOTRANSFERASE [6]: 29.33 u/L
ALKALINE PHOSPHATASE [6]: 361 u/L
ASPARTATE AMINOTRANSFERASE [6]: 51.67 u/L
BLOOD UREA NITROGEN [6]: 15.67 mg/dL
CHOLESTEROL [6]: 64.67 mg/dL
CREATINE PHOSPHOKINASE [6]: 155.67 u/L
CREATININE [6]: 0.53 mg/dL
GLUCOSE [6]: 166.33 mg/dL
PHOSPHORUS [6]: 13.37 mg/dL
POTASSIUM [6]: 7.1 MEQ/L
SODIUM [6]: 147 MEQ/L
TOTAL PROTEIN [6]: 5.7 G/DL
